Experimental findings from patent US20140105921A1, “Prodrugs of Peptide Epoxy Ketone Protease Inhibitors” (Onyx Therapeutics, Inc., priority 2012, published 2014) are described below.

Like-named read-outs stand apart in the source and are kept apart here.

The target of one data set is i20s (Homo sapiens, UniProt P20618+P28062). Briefly: Purified PI, IC50 against i20s. Type of data set: biochemical.
Another data set addresses c20s (Homo sapiens, UniProt P20618+P28074). Briefly: Purified PI, IC50 against c20s. Type of data set: biochemical.
Data set [1] can be described thus: Conversion of Prodrugs by Human Liver S9. Type of data set: in vitro ADME.
[2] abbreviates: Table G, read-out: IC50 Slope i20s.
Where [3] appears, read: Table G, read-out: IC50 Slope c20s.
Where [4] appears, read: Table G, value marked *: did not converge, read-out: IC50 Slope i20s.
The mark [5] stands for this setting: Table G, value marked *: did not converge, read-out: IC50 Slope c20s.
Where [6] appears, read: IC50 60 minute point i20s, Table H, 60 minute point.
[7] abbreviates: Table H, read-out: IC50 Slope i20s.
Setting [8] is: IC50 60 minute point c20s, Table H, 60 minute point.
Where [9] appears, read: Table H, read-out: IC50 Slope c20s.

In general, IC50 refers to the point on the concentration scale where inhibition reaches its midpoint.

On to `CC(C)C[C@H](NC(=O)[C@H](CCc1ccccc1)NC(=O)C[N+]1(COC(=O)C(C)(C)C)CCOCC1)C(=O)N[C@@H](Cc1ccccc1)C(=O)N[C@@H](CC(C)C)C(=O)[C@@]1(C)CO1`, for which the half-maximal inhibitory concentration (IC50) at i20s (setting [2]) is 0.0498 µM; on c20s (setting [3]), 0.00891 µM. Regarding `CC(=O)N/N=C(/[C@H](CC(C)C)NC(=O)[C@H](Cc1ccccc1)NC(=O)[C@H](CC(C)C)NC(=O)[C@H](CCc1ccccc1)NC(=O)CN1CCOCC1)[C@@]1(C)CO1`, the IC50 is 2.19 µM at i20s (setting [4]) and 0.678 µM on c20s (setting [3]). With `COCCOCCOCCOCCC(=O)N/N=C(/[C@H](CC(C)C)NC(=O)[C@H](Cc1ccccc1)NC(=O)[C@H](CC(C)C)NC(=O)[C@H](CCc1ccccc1)NC(=O)CN1CCOCC1)[C@@]1(C)CO1`, on i20s (setting [4]), the IC50 stood at 3.24 µM. Regarding `CC(C)C[C@H](NC(=O)[C@H](CCc1ccccc1)NC(=O)CN1CCOCC1)C(=O)N[C@@H](Cc1ccccc1)C(=O)N[C@@H](CC(C)C)/C(=N/O)[C@@]1(C)CO1`, the IC50 came out at 2.29 µM at i20s (setting [4]) and 0.279 µM on c20s (setting [5]).

With `CO/N=C(/[C@H](CC(C)C)NC(=O)[C@H](Cc1ccccc1)NC(=O)[C@H](CC(C)C)NC(=O)[C@H](CCc1ccccc1)NC(=O)CN1CCOCC1)[C@@]1(C)CO1`, the IC50 on c20s (setting [5]) worked out at 2.61 µM.

Turning to `CC(C)C[C@H](NC(=O)[C@H](CCc1ccccc1)NC(=O)CN1CCOCC1)C(=O)N[C@@H](Cc1ccccc1)C(=O)N[C@@H](CC(C)C)/C(=N/OCc1ccccc1)[C@@]1(C)CO1`, the figures for the IC50 at i20s (setting [2]) and on c20s (setting [3]) were 2.18 µM and 0.539 µM, respectively.

For the molecule `CC(C)C[C@H](NC(=O)[C@H](CCc1ccccc1)NC(=O)CN1CCOCC1)C(=O)N[C@@H](Cc1ccccc1)C(=O)N[C@@H](CC(C)C)C(=O)[C@](C)(O)COS(C)(=O)=O`, the figures for the concentration for half-maximal inhibition (IC50) at i20s (setting [2]) and on c20s (setting [3]) were 0.0987 µM and 0.0377 µM, respectively.

For the molecule `Cc1ccc(S(=O)(=O)OC[C@@](C)(O)C(=O)[C@H](CC(C)C)NC(=O)[C@H](Cc2ccccc2)NC(=O)[C@H](CC(C)C)NC(=O)[C@H](CCc2ccccc2)NC(=O)CN2CCOCC2)cc1`, the half-maximal inhibitory concentration (IC50) at i20s (setting [2]) was determined as 0.316 µM; at c20s (setting [3]) it was 0.0737 µM. The corresponding values for `CC(C)C[C@H](NC(=O)[C@H](CCc1ccccc1)NC(=O)CN1CCOCC1)C(=O)N[C@@H](Cc1ccccc1)C(=O)N[C@@H](CC(C)C)C(=O)[C@](C)(O)CCl` are 0.143 µM and 0.615 µM. Turning to `CC(C)C[C@H](NC(=O)[C@H](CCc1ccccc1)NC(=O)CN1CCOCC1)C(=O)N[C@@H](Cc1ccccc1)C(=O)N[C@@H](CC(C)C)C(=O)[C@](C)(O)COn1nnc2ccccc21`, the IC50 on i20s (setting [4]) worked out at 2.82 µM; on c20s (setting [5]), 2.47 µM. Regarding `CC(=O)OC[C@@](C)(O)C(=O)[C@H](CC(C)C)NC(=O)[C@H](Cc1ccccc1)NC(=O)[C@H](CC(C)C)NC(=O)[C@H](CCc1ccccc1)NC(=O)CN1CCOCC1`, the IC50 worked out at 8.19 µM at i20s (setting [2]) and 2.44 µM on c20s (setting [5]). `CC(C)C[C@H](NC(=O)[C@H](CCc1ccccc1)NC(=O)CN1CCOCC1)C(=O)N[C@@H](Cc1ccccc1)C(=O)N[C@@H](CC(C)C)C(=O)[C@](C)(O)COC(=O)c1c(Cl)cccc1Cl`: the concentration for half-maximal inhibition (IC50) at i20s (setting [2]) was 0.66 µM. Take `CC(C)C[C@H](NC(=O)[C@H](CCc1ccccc1)NC(=O)CN1CCOCC1)C(=O)N[C@@H](Cc1ccccc1)C(=O)N[C@@H](CC(C)C)C(=O)[C@](C)(O)COP(=O)(c1ccccc1)c1ccccc1`: the 50% inhibitory concentration (IC50) at i20s (setting [4]) was determined as 2.55 µM; on c20s (setting [3]) it was 2.67 µM. Consider `COC[C@H](NC(=O)c1cnc(C)s1)C(=O)N[C@@H](COC)C(=O)N[C@@H](Cc1ccccc1)/C(=N/OC)[C@@]1(C)CO1`, for which the “IC50 60 minute point i20s” value against i20s (Table H, 60 minute point) is “inactive”. In addition, on c20s (IC50 60 minute point c20s, Table H, 60 minute point, value marked * (Table G: did not converge)), the IC50 worked out at 2.56 µM. Consider `COC[C@H](NC(=O)c1cnc(C)s1)C(=O)N[C@@H](COC)C(=O)N[C@@H](Cc1ccccc1)C(=O)[C@](C)(O)COS(C)(=O)=O`, for which the IC50 on i20s (setting [6]) is 0.614 µM; on i20s (setting [7]) it was 0.179 µM; on c20s (setting [8]), 0.459 µM; on c20s (setting [9]) it was 0.103 µM. Taken in the same sequence, the figures for `COC[C@H](NC(=O)c1cnc(C)s1)C(=O)N[C@@H](COC)C(=O)N[C@@H](Cc1ccccc1)C(=O)[C@](C)(O)COS(=O)(=O)c1ccc(C)cc1` were 0.637 µM, 0.252 µM, 0.748 µM and 0.141 µM. With `COC[C@H](NC(=O)c1cnc(C)s1)C(=O)N[C@@H](COC)C(=O)N[C@@H](Cc1ccccc1)C(=O)[C@](C)(O)COC(C)=O`, on i20s (Table H, 60 minute point), the “IC50 60 minute point i20s” value is “inactive”. Besides, the “IC50 60 minute point c20s” value against c20s (Table H, 60 minute point) was “inactive”. Take `COC[C@H](NC(=O)c1cnc(C)s1)C(=O)N[C@@H](COC)C(=O)N[C@@H](Cc1ccccc1)C(=O)[C@](C)(O)COC(=O)c1c(Cl)cccc1Cl`: the “IC50 60 minute point i20s” value at i20s (Table H, 60 minute point) was “inactive”. Besides, the “IC50 60 minute point c20s” value on c20s (Table H, 60 minute point) is “inactive”. As for `COC[C@H](NC(=O)c1cnc(C)s1)C(=O)N[C@@H](COC)C(=O)N[C@@H](Cc1ccccc1)C(=O)[C@](C)(O)COP(=O)(c1ccccc1)c1ccccc1`, the “IC50 60 minute point i20s” value at i20s (Table H, 60 minute point) was “inactive”. The “IC50 60 minute point c20s” value against c20s (Table H, 60 minute point) was “inactive”. Take `COC[C@H](NC(=O)c1cnc(C)s1)C(=O)N[C@@H](COC)C(=O)N[C@@H](Cc1ccccc1)C(=O)[C@@](C)(CI)OC(=O)CCCCSC(C)=O` [20-10]: the “Human Liver S9 % Conversion @ 1 hour” value in data set [1] is recorded as 3%. Same read-out and setting: then `COC[C@H](NC(=O)c1cnc(C)s1)C(=O)N[C@@H](COC)C(=O)N[C@@H](Cc1ccccc1)C(=O)[C@@](C)(CI)OC(=O)CCCOC(C)=O` [20-13], with 11%; and `COC[C@H](NC(=O)c1cnc(C)s1)C(=O)N[C@@H](COC)C(=O)N[C@@H](Cc1ccccc1)C(=O)[C@@](C)(CI)OC(=O)OCc1oc(=O)oc1C` [20-15], with 30%. Same read-out and setting: then `CCOC(=O)C(=O)O[C@](C)(CI)C(=O)[C@H](Cc1ccccc1)NC(=O)[C@H](COC)NC(=O)[C@H](COC)NC(=O)c1cnc(C)s1` [20-16], with 24%; and `CCOC(=O)CCC(=O)O[C@](C)(CI)C(=O)[C@H](Cc1ccccc1)NC(=O)[C@H](COC)NC(=O)[C@H](COC)NC(=O)c1cnc(C)s1` [20-17], with 1%; and `COC[C@H](NC(=O)c1cnc(C)s1)C(=O)N[C@@H](COC)C(=O)N[C@@H](Cc1ccccc1)C(=O)[C@@](C)(CI)OC(=O)COc1ccccc1` [20-19], with 7%. Take `COC[C@H](NC(=O)c1cnc(C)s1)C(=O)N[C@@H](COC)C(=O)N[C@@H](Cc1ccccc1)C(=O)[C@@](C)(CI)OC(=O)OCc1ccc(OC(C)=O)cc1` [20-22]: the “Human Liver S9 % Conversion @ 1 hour” value in data set [1] is 28%. The same measure, in the same setting: the same measure for `COC[C@H](NC(=O)c1cnc(C)s1)C(=O)N[C@@H](COC)C(=O)N[C@@H](Cc1ccccc1)C(=O)[C@@](C)(CI)OC(=O)CCl` [20-23]: 22%; for `COC[C@H](NC(=O)c1cnc(C)s1)C(=O)N[C@@H](COC)C(=O)N[C@@H](Cc1ccccc1)C(=O)[C@@](C)(CI)OC=O` [20-24]: 29%; for `CCOC(=O)O[C@](C)(CI)C(=O)[C@H](Cc1ccccc1)NC(=O)[C@H](COC)NC(=O)[C@H](COC)NC(=O)c1cnc(C)s1` [20-25]: 14%. Turning to `COC[C@H](NC(=O)c1cnc(C)s1)C(=O)N[C@@H](COC)C(=O)N[C@@H](Cc1ccccc1)C(=O)[C@](C)(O)COS(=O)(=O)C1CCOCC1` [drawing 373], the IC50 was found to be 0.278 µM on i20s (Table H, value marked * (Table G: did not converge), read-out: IC50 Slope i20s) and 0.193 µM on c20s (setting [9]). Regarding `COC[C@H](NC(=O)c1cnc(C)s1)C(=O)N[C@@H](COC)C(=O)N[C@@H](Cc1ccccc1)C(=O)[C@](C)(O)COS(=O)(=O)Cc1ccccc1` [drawing 374], the IC50 at c20s (setting [9]) worked out at 0.0954 µM.
